Activity calls are given as the source filed them. No cut-off for these calls is given here.

One assay addresses T1, Maltase-glucoamylase (Homo sapiens, UniProt O43451). Description: Inhibition of alpha-glucosidase at 100 uM.
Target sequence in this assay (O43451 whole entry, looked up): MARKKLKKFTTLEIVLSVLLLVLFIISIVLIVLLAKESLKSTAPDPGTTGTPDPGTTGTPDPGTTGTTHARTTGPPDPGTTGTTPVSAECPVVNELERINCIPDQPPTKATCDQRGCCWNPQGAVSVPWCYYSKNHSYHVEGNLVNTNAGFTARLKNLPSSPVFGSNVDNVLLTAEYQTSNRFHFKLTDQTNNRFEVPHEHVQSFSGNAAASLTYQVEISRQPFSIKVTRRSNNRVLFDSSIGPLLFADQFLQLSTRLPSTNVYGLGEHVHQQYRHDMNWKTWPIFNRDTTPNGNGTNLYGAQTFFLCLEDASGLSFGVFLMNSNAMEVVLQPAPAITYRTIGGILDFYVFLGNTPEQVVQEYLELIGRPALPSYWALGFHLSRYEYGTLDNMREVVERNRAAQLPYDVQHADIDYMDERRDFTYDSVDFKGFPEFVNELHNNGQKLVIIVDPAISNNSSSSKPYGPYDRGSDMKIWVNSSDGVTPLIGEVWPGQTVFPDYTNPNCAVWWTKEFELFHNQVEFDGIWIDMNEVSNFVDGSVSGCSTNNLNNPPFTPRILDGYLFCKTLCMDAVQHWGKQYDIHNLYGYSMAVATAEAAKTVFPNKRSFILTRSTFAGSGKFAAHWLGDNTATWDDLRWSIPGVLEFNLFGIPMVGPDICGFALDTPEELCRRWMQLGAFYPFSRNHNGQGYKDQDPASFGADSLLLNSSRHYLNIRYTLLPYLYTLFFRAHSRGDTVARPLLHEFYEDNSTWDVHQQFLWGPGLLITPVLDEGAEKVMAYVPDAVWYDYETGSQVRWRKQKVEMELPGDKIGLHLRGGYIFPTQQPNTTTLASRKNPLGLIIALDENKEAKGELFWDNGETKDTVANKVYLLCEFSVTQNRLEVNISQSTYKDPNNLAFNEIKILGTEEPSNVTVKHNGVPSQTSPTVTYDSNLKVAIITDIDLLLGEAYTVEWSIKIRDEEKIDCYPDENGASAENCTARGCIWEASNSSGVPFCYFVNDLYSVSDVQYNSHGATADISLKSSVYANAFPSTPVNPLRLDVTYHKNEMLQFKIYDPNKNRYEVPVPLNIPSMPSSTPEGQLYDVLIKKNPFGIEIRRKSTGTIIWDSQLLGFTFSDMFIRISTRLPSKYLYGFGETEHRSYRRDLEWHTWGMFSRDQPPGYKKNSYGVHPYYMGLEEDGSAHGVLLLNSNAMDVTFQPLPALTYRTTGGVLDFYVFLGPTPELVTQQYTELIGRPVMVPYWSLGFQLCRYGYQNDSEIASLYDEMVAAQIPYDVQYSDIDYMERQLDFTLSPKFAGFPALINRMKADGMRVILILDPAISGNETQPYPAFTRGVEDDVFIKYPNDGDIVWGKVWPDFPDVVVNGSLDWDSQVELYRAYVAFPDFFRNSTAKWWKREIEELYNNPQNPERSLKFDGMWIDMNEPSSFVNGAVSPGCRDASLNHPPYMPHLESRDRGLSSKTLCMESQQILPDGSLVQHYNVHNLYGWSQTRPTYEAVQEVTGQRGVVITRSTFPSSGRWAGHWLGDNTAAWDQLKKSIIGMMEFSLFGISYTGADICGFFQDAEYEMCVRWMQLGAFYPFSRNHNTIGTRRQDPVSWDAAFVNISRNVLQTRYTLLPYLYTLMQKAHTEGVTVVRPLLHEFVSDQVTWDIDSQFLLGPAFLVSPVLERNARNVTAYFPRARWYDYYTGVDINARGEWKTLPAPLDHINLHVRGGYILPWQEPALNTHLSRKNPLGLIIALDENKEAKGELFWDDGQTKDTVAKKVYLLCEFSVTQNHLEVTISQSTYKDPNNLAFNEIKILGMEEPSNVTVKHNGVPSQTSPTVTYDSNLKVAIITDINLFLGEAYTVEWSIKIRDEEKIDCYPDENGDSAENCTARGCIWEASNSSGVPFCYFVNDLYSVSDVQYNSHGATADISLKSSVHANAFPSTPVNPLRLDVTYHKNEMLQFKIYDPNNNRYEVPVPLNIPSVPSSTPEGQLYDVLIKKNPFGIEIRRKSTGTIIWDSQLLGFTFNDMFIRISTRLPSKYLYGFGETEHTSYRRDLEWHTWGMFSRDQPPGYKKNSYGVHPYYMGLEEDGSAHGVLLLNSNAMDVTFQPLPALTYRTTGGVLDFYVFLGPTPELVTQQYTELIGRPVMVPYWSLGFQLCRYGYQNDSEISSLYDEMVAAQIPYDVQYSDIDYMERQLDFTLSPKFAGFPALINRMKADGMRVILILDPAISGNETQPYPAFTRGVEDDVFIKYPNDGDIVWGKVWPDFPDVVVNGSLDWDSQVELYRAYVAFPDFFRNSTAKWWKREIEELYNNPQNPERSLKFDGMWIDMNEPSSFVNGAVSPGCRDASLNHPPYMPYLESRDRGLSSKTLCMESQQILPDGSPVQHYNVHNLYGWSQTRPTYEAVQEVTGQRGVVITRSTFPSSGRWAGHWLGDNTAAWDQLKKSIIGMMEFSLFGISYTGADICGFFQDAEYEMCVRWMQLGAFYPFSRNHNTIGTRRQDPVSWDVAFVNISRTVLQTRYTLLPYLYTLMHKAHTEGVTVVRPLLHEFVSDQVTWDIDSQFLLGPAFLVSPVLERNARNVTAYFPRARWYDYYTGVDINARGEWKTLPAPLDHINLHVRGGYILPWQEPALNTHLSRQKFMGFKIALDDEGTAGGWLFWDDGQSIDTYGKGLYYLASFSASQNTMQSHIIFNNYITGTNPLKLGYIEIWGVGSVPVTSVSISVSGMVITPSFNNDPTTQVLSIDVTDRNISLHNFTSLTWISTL
One may read the inhibition as the percentage by which the read-out fell short of the control. Low readings indicate a response near the control, high ones a response far below the control. Turning to `C=C1CC[C@@H]2[C@](C)(CO)[C@H](O)CC[C@@]2(C)[C@@H]1/C=C/C1=CC(=C/c2ccccc2)/OC1=O`, the inhibition came to 84.3%.

As to `C=C1CC[C@@H]2[C@](C)(CO)[C@H](O)CC[C@@]2(C)[C@@H]1CCC1CCOC1=O` (stereo partly specified), the result was inactive. For `C=C1CC[C@@H]2[C@](C)(CO)[C@H](O)CC[C@@]2(C)[C@@H]1/C=C/C1=CC(=C/c2ccc(Cl)cc2)/OC1=O`, the result was inactive. On the same count and under the same terms, the same measure for `C=C1CC[C@@H]2[C@](C)(CO)[C@H](O)CC[C@@]2(C)[C@@H]1/C=C/C1=CC(=C\C(C)=C\CCC/C=C/C)/OC1=O`: “inactive”. For the molecule `C=C1CC[C@@H]2[C@](C)(COC(=O)c3cccnc3)[C@H](OC(=O)c3cccnc3)CC[C@@]2(C)[C@@H]1/C=C/C1=CC(=C\c2cccc(Br)c2)/OC1=O`, the inhibition was 100%. On the same count and under the same terms, next, `C=C1CC[C@@H]2[C@](C)(COC(=O)c3cccnc3)[C@H](OC(=O)c3cccnc3)CC[C@@]2(C)[C@@H]1/C=C/C1=CC(=C/c2ccco2)/OC1=O`: 95.9%; `C=C1CC[C@@H]2[C@](C)(COC(=O)c3cccnc3)[C@H](OC(=O)c3cccnc3)CC[C@@]2(C)[C@@H]1/C=C/C1=CC(=C\c2ccc(OC)cc2)/OC1=O`: 100%; `C=C1CC[C@@H]2[C@](C)(CO)[C@H](O)CC[C@@]2(C)[C@@H]1/C=C/C1=CC(=C/c2cc(OC)c(OC)cc2OC)/OC1=O`: 57.8%.

In turn, `C=C1CC[C@@H]2[C@](C)(COC(=O)c3cccnc3)[C@H](OC(=O)c3cccnc3)CC[C@@]2(C)[C@@H]1/C=C/C1=CC(=C\c2ccc(Cl)cc2)/OC1=O` returned an inhibition of 100%. For the molecule `C=C1CC[C@@H]2[C@](C)(CO)[C@H](O)CC[C@@]2(C)[C@@H]1/C=C/C1=CC(=C/c2ccc3c(c2)OCO3)/OC1=O`, the inhibition worked out at 59.3%.

In turn, `C=C1CC[C@@H]2[C@]3(C)COCO[C@@H]3CC[C@@]2(C)[C@@H]1CC(O)C1=CCOC1=O` (stereo partly specified) came in with an inhibition of 6.9%.

Consider `C=C1CC[C@@H]2[C@](C)(CO)[C@H](O)CC[C@@]2(C)[C@@H]1/C=C/C1=CC(=C/c2ccc(F)cc2)/OC1=O`, for which the result was inactive. The same measure, in the same setting: the same measure for `C=C1CC[C@@H]2[C@](C)(CO)[C@H](O)CC[C@@]2(C)[C@@H]1C/C=C1/C(=O)OC[C@H]1O`: “inactive”. Consider `C[C@]1(CO)[C@H]2CC[C@@]3(CO3)[C@@H](C/C=C3/C(=O)OC[C@H]3O)[C@]2(C)CC[C@H]1O`, for which the result was inactive. As to `C=C1CC[C@@H]2[C@](C)(CO)[C@H](O)CC[C@@]2(C)[C@@H]1/C=C/C1=CC(=C/c2ccc(N(C)C)cc2)/OC1=O`, the inhibition is 60.6%. On the same count and under the same terms, next, `C=C1CC[C@@H]2[C@](C)(COC(=O)c3cccnc3)[C@H](OC(=O)c3cccnc3)CC[C@@]2(C)[C@@H]1/C=C/C1=CC(=C\C(C)=C\CCC/C=C/C)/OC1=O`: 68.9%; `C=C1CC[C@@H]2[C@](C)(COC(=O)c3cccnc3)[C@H](OC(=O)c3cccnc3)CC[C@@]2(C)[C@@H]1/C=C/C1=CC(=C\c2ccc(N(C)C)cc2)/OC1=O`: 74.8%; `C=C1CC[C@@H]2[C@](C)(COC(=O)c3cccnc3)[C@H](OC(=O)c3cccnc3)CC[C@@]2(C)[C@@H]1/C=C/C1=CC(=C\c2ccccc2)/OC1=O`: 100%.

Molecule `C=C1CC[C@@H]2[C@](C)(CO)[C@H](O)CC[C@@]2(C)[C@@H]1/C=C/C1=CC(=C/c2ccco2)/OC1=O` yielded an inhibition of 49.6%.

Another assay addresses T1, Maltase-glucoamylase. Description: Inhibition of alpha-glucosidase.
Target sequence in this assay (O43451 whole entry): as the sequence (O43451 whole entry, looked up) above
Broadly, the IC50 is the concentration that inhibits the measured activity by half. The low end stands for greater potency, the high end for weaker potency. On to `C=C1CC[C@@H]2[C@](C)(CO)[C@H](O)CC[C@@]2(C)[C@@H]1/C=C/C1=CC(=C/c2ccc(OC)cc2)/OC1=O`, for which the IC50 is 16 µM.

The target of another assay is T1, Maltase-glucoamylase. Description: Inhibition of alpha-glucosidase at 1 mM.
Target sequence in this assay (O43451 whole entry, looked up): as above
As for `C[C@H]1O[C@H](O[C@H]2[C@H](O)[C@@H](O)[C@@H](O[C@H]3[C@H](O)[C@@H](O)C(O)O[C@@H]3CO)O[C@@H]2CO)[C@H](O)[C@@H](O)[C@@H]1N[C@H]1C=C(CO)[C@@H](O)[C@H](O)[C@H]1O` (stereo partly specified), the inhibition came out at 56.5%.
